Data as given in US6277867A, “Pesticide compounds, compositions and process for the preparation thereof” (priority 1995, dated 2001).

Assays:
[1] = tested on: house fly (Musca domestica); details: in vivo, topical_or_ocular, 1440 min
Method: Investigation of Synergistic Activity on House Fly (Musca domestica) Following Topical Application
In two parallel experiments 10 female. 2-4 day old house flies were treated on the vental side of their thorax with 0.2 μl of the test solution, with the help of Hamilton MicroLab P microdispenser. Beside fixed synergist dose of 1000 ng/fly the animals were treated with carbofuran at a dose of 20 ng/fly. For solvent cellosolve was used. Selection and counting of the flies were performed under the action of CO2. After treatment the flies were kept in plastic cups covered with tulle. Mortality after 24 hours was expressed in %.

[2] = tested on: cotton bollworm (Helicoverpa armigera); assay: Synergistic activity on cotton bollworm following topical application; details: in vivo
Method: Investigation of Synergistic Activity on Cotton Bollworm (Helicoverpa armigera) Following Topical Application
Treatment was performed similarity as described in Example 1. but L2 stadium grubs of cotton bollworms (Helicoverpa armigera) were treated as test animals. From the 24 hour dose--mortality data the LD50 (ng/grub) values were determined using probit analysis. None of the synergists acted at the applied 1000 ng/grub dose. Synergist ratio was calculated as the quotient of the LD50 values of carbofuran administered alone, and with the synergist. The experiments were performed in 2-4 replica.

[3] = tested on: house fly (Musca domestica); assay: Effect of the active ingredient:synergist ratio on the synergistic activity (flies)
Method: Effect of the Active Ingredient:Synergist Ratio on the Synergistic Activity
Treatment was performed as described in Example 1. using Hamilton MicroLab P microdispenser. In two parallel experiments 10 female -3 day old flies were treated on the ventral side of their thorax with 0.2 μl test solution. Beside 1000-400-200-80 ng/fly fixed doses of the synergist they were treated with constant 20 ng/fly CARBOFURAN®. Selection and counting of the flies were performed under the action of CO2. After treatment the flies were kept in plastic cups covered with tulle. After 24 hours mortality % was recorded. Depending on the results the experiments were performed in 2-4 replica.

[4] = tested on: house fly (Musca domestica); assay: Effect on fecundity, on house fly; type: in vivo; details: 500 ppm in granulated sugar, 48 hours feeding; eggs of next 10 days
Method: Investigation of the Effect on Fecundity, on House Fly (Musca domestica)
Groups consisting of freshly hatched 50 male and 50 female flies were fed during 48 hours with granulated sugar comprising 500 ppm of material No. 441 and 484 of the present invention respectively, and the eggs layed on the next 10 days were raised. The fecundity-hindering effect was expressed as the quotient of the emerged flies in the treated and untreated groups. The experiments were performed in 4 replica.

[5] = tested on: flies; assay: Comparative investigations with known reference synergists on flies treated with carbofuran; type: in vivo; details: flies treated with carbofuran and 1000 ng of the synergist
Text: These SR50 ratios were compared to those of the new compounds prepared by us.

[6] = tested on: mammals; details: cited from earlier work

Structure (SMILES) | mortality % [1] [%] | Synergist ratio [2] | 24 hour mortality (%) ([3]; carbofuran 20 ng/fly + synergist 80 ng/fly) | 24 hour mortality (%) ([3]; carbofuran 20 ng/fly + synergist 200 ng/fly) | 24 hour mortality (%) ([3]; carbofuran 20 ng/fly + synergist 400 ng/fly) | 24 hour mortality (%) ([3]; house fly, in vivo, topical_or_ocular) | Hindering effect on fecundity [4] [%] | Synergist ratio SR50 [5] | tumor provoking effect [6]
CC#CCOCc1ccc2c(c1)OCO2 [Compound 441, 5-[(But-2-ynyloxy)-methyl]-1,3-benzodioxole] | 97 | > 5 | 62 | 67 | 90 | 95 | 87 | 25.70 | 
CCCCOCCOCCOCc1cc2c(cc1CCC)OCO2 [PBO] |  |  |  |  |  |  |  |  | suspected tumor provoking effect
